Here are results for 20 compounds from PubChem BioAssay (NCI).

The structures appear in SMILES notation.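 Method: 48-hour compound exposure of cells in 96-well plates, five concentrations, linear interpolation of endpoints. TGI is the concentration that stops growth completely.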

A word on the TGI: it is the concentration giving total growth inhibition.

Test systems include OVCAR-5 ovarian; SW-620 colon; UACC-62 melanoma; HOP-92 NSCLC; SK-MEL-5 melanoma; SF-295 CNS; OVCAR-8 ovarian; MOLT-4 leukemia; SK-OV-3 ovarian; EKVX NSCLC; RXF 393 renal; MDA-MB-231 breast; BT-549 breast; T-47D breast.
Holding throughout (assay): DTP human tumour cell line panel, 48 h

On to `CC[N+](CC)(CC)Cc1cn(S(=O)(=O)c2ccccc2)c2ccccc12`, for which the total growth inhibition concentration (TGI) in the assay on OVCAR-5 ovarian, with SW-620 colon, in the assay on UACC-62 melanoma, in the assay with HOP-92 NSCLC, in the assay on SK-MEL-5 melanoma and with SF-295 CNS was over 100 µM throughout. Also, the TGI in the assay on OVCAR-8 ovarian and in the assay on MOLT-4 leukemia was over 100 µM throughout.
Regarding `C1=Cc2nc1c(-c1ccccc1)c1ccc([n-]1)c(-c1ccccc1)c1nc(c(-c3ccccc3)c3ccc([n-]3)c2-c2ccccc2)C=C1.[Zn+2]`, the TGI with OVCAR-5 ovarian, in the assay with SW-620 colon, in the assay on UACC-62 melanoma, with SK-OV-3 ovarian, in the assay with HOP-92 NSCLC and in the assay on EKVX NSCLC was over 100 µM in each case. In addition, the TGI in the assay with SK-MEL-5 melanoma, with SF-295 CNS, in the assay on OVCAR-8 ovarian and with MOLT-4 leukemia was over 100 µM each time.
Turning to `CC(C)C1=CC(=O)C(C)(C2=NC(C)(C)CO2)c2ccccc21` (stereo not given), the TGI in the assay on RXF 393 renal, in the assay on SW-620 colon, in the assay on UACC-62 melanoma, with SK-OV-3 ovarian, in the assay on HOP-92 NSCLC and with EKVX NSCLC was over 100 µM throughout. Also, the TGI in the assay with SK-MEL-5 melanoma, in the assay with SF-295 CNS, in the assay with OVCAR-8 ovarian and with MOLT-4 leukemia was over 100 µM in each case.
Regarding `Clc1ccc2c(Cl)ncnc2c1I`, the TGI in the assay on OVCAR-5 ovarian is over 100 µM; with RXF 393 renal it was over 100 µM; in the assay on SW-620 colon, over 100 µM; in the assay on UACC-62 melanoma it was over 100 µM; with SK-OV-3 ovarian, over 100 µM; in the assay with EKVX NSCLC it was 99.4 µM. Further, the TGI with SK-MEL-5 melanoma was over 100 µM; in the assay with SF-295 CNS, over 100 µM; with OVCAR-8 ovarian it was over 100 µM; in the assay on MOLT-4 leukemia, 61.4 µM.
Take `Cc1ccc2nc(CN3CCCCC3)cc(=O)n2c1`: the TGI in the assay on OVCAR-5 ovarian, in the assay on MDA-MB-231 breast, with BT-549 breast, in the assay on SW-620 colon, with UACC-62 melanoma and with SK-OV-3 ovarian was over 100 µM throughout. Moreover, the TGI in the assay on HOP-92 NSCLC, in the assay on EKVX NSCLC, in the assay with SF-295 CNS, in the assay with OVCAR-8 ovarian and in the assay with MOLT-4 leukemia was over 100 µM throughout.
With `CC(=O)CCC(=O)CC(O)(C(F)(F)F)C(F)(F)F`, the TGI with OVCAR-5 ovarian is 29.9 µM; with RXF 393 renal it was 34.5 µM; in the assay on MDA-MB-231 breast, 35 µM; in the assay on SW-620 colon it was 42.8 µM; in the assay on UACC-62 melanoma, 32 µM; with HOP-92 NSCLC, 26.7 µM. Besides, the TGI with SK-MEL-5 melanoma was 33.2 µM; in the assay with SF-295 CNS it was 27.1 µM; in the assay on OVCAR-8 ovarian it was 37.9 µM; in the assay with T-47D breast it was 40 µM; in the assay with MOLT-4 leukemia, 36.6 µM.
As to `Cc1nc2c(s/c(=N\N)n2-c2ccccc2)c(=O)[nH]1`, the concentration for total growth inhibition (TGI) in the assay on OVCAR-5 ovarian, with RXF 393 renal, with SW-620 colon, with UACC-62 melanoma, in the assay on SK-OV-3 ovarian and in the assay on HOP-92 NSCLC was over 100 µM each time. The TGI in the assay with EKVX NSCLC, in the assay on SK-MEL-5 melanoma, in the assay with SF-295 CNS, in the assay on OVCAR-8 ovarian and in the assay with MOLT-4 leukemia was over 100 µM each time.
As to `O=C(CSc1nnc(-c2ccc(N=Cc3ccc(Cl)cc3)cc2)o1)Nc1ccccc1`, the TGI with RXF 393 renal was 96.9 µM; in the assay on SW-620 colon, over 100 µM; with UACC-62 melanoma, over 100 µM; with SK-OV-3 ovarian it was over 100 µM; in the assay on EKVX NSCLC, over 100 µM; in the assay with SK-MEL-5 melanoma, over 100 µM. Further, the TGI in the assay on SF-295 CNS, in the assay on OVCAR-8 ovarian and in the assay on MOLT-4 leukemia was over 100 µM in each case.
Turning to `c1ccc2c(NCCCCCCCCNc3cccc4ccccc34)cccc2c1`, the TGI in the assay with OVCAR-5 ovarian was over 100 µM; in the assay on SW-620 colon it was 40 µM; in the assay on UACC-62 melanoma, 45.9 µM; in the assay on SK-OV-3 ovarian, over 100 µM; in the assay with HOP-92 NSCLC, 35.7 µM; in the assay with EKVX NSCLC it was over 10 µM. In addition, the TGI is over 10 µM in the assay on SK-MEL-5 melanoma, over 100 µM in the assay on SF-295 CNS, 54.8 µM with OVCAR-8 ovarian and 39.9 µM in the assay with MOLT-4 leukemia.
As to `BrC12C3C4C5C(C(C43)C13OCCO3)C52` (stereo not given), the TGI with OVCAR-5 ovarian, in the assay with RXF 393 renal, in the assay on SW-620 colon, in the assay with SK-OV-3 ovarian, with HOP-92 NSCLC and in the assay with EKVX NSCLC was over 100 µM in each case. Also, the TGI with SK-MEL-5 melanoma, in the assay with SF-295 CNS, in the assay on OVCAR-8 ovarian and with MOLT-4 leukemia was over 100 µM throughout.
As for `CCCCC1(OC(=O)CCC(=O)O)CCC2(CCC(C)C(C/C=C(C)/C=C/C(O)C(C)/C=C/C(=O)O)O2)OC1CC/C(C)=C/C(=O)O` (stereo not given), the TGI in the assay with OVCAR-5 ovarian stood at 14.4 µM; in the assay with RXF 393 renal, 4.58 µM; in the assay with SW-620 colon it was 39.8 µM; with UACC-62 melanoma, 2.62 µM; with SK-OV-3 ovarian, 25.4 µM; with HOP-92 NSCLC, 4.74 µM. In addition, the TGI in the assay on EKVX NSCLC came out at 25.7 µM; with SK-MEL-5 melanoma, 3.14 µM; in the assay with SF-295 CNS, 15.8 µM; in the assay on OVCAR-8 ovarian, 7.67 µM; with MOLT-4 leukemia it was 26.9 µM.
As to `O=C1OC(c2ccccc2)(c2ccccc2)CC1CN1CCOCC1` (stereo not given), the TGI is 67.5 µM with OVCAR-5 ovarian; 18 µM in the assay with SW-620 colon; over 100 µM in the assay with UACC-62 melanoma; 60.6 µM with SK-OV-3 ovarian; over 100 µM in the assay with EKVX NSCLC; over 100 µM in the assay with SK-MEL-5 melanoma. For the same compound, the TGI in the assay on OVCAR-8 ovarian is over 100 µM; in the assay on MOLT-4 leukemia it was 65.4 µM.
Turning to `Cc1cccc(NC(=O)CSc2nnc(Cc3ccccc3)o2)c1`, the TGI in the assay on OVCAR-5 ovarian, with RXF 393 renal, with SW-620 colon, with UACC-62 melanoma, with SK-OV-3 ovarian and with EKVX NSCLC was over 100 µM throughout. The TGI in the assay with SK-MEL-5 melanoma, with SF-295 CNS, with OVCAR-8 ovarian and in the assay on MOLT-4 leukemia was over 100 µM in each case.
For the compound `Cc1nc(Nc2ccccc2)sc1C(=O)NNC(N)=O`, the TGI with OVCAR-5 ovarian, with RXF 393 renal, in the assay on SW-620 colon, in the assay with UACC-62 melanoma, with SK-OV-3 ovarian and with HOP-92 NSCLC was over 100 µM throughout. For the same compound, the TGI with EKVX NSCLC, in the assay with SK-MEL-5 melanoma, in the assay on SF-295 CNS, in the assay on OVCAR-8 ovarian and in the assay on MOLT-4 leukemia was over 100 µM throughout.
On to `COc1ccccc1NC(=S)Nc1cccc(C)n1`, for which the TGI in the assay on OVCAR-5 ovarian, in the assay with RXF 393 renal, in the assay on BT-549 breast, with SW-620 colon, in the assay on UACC-62 melanoma and with SK-OV-3 ovarian was over 100 µM throughout. For the same compound, the TGI in the assay on EKVX NSCLC, with SK-MEL-5 melanoma, in the assay on SF-295 CNS, in the assay with OVCAR-8 ovarian, in the assay on T-47D breast and with MOLT-4 leukemia was over 100 µM each time.
`O=C(/C=C(\O)C(=O)O)/C=C(\O)c1ccccc1Cl`: the TGI with OVCAR-5 ovarian, with RXF 393 renal, in the assay with SW-620 colon, in the assay on UACC-62 melanoma, in the assay on SK-OV-3 ovarian and in the assay on HOP-92 NSCLC was over 100 µM throughout. The TGI in the assay with EKVX NSCLC, in the assay with SK-MEL-5 melanoma, with SF-295 CNS, in the assay on OVCAR-8 ovarian and in the assay with MOLT-4 leukemia was over 100 µM in each case.
Turning to `CN(C)c1cccc(-c2cc(=O)c3cc4c(cc3[nH]2)OCO4)c1`, the TGI was 0.92 µM with OVCAR-5 ovarian; 0.859 µM in the assay on RXF 393 renal; over 100 µM with SW-620 colon; over 100 µM in the assay with UACC-62 melanoma; 0.932 µM with SK-OV-3 ovarian; over 100 µM in the assay on HOP-92 NSCLC. Moreover, the TGI is over 100 µM with EKVX NSCLC; 2.83 µM with SK-MEL-5 melanoma; 0.693 µM with SF-295 CNS; 3.65 µM with OVCAR-8 ovarian; over 100 µM with MOLT-4 leukemia.
With `COc1ccc2c(c1)CC1NC2Cc2ccccc21` (stereo not given), the TGI in the assay on OVCAR-5 ovarian, in the assay with SW-620 colon, with UACC-62 melanoma, with SK-OV-3 ovarian, in the assay with EKVX NSCLC and with SK-MEL-5 melanoma was over 100 µM throughout. In addition, the TGI with SF-295 CNS, in the assay on OVCAR-8 ovarian and in the assay on MOLT-4 leukemia was over 100 µM in each case.
Regarding `CC1(C)C[C@H]2C3=CC[C@@H]4[C@@]5(C)CC[C@H](O)C(C)(C)[C@@H]5CC[C@@]4(C)[C@]3(C)C[C@@H](O)[C@@]23C[C@@H]1OC3=O`, the total growth inhibition concentration (TGI) with OVCAR-5 ovarian, in the assay with MDA-MB-231 breast, in the assay on SW-620 colon, with UACC-62 melanoma, with SK-OV-3 ovarian and in the assay with HOP-92 NSCLC was over 100 µM in each case. Besides, the TGI in the assay with EKVX NSCLC, with SK-MEL-5 melanoma, in the assay on SF-295 CNS, with OVCAR-8 ovarian, in the assay on T-47D breast and in the assay on MOLT-4 leukemia was over 100 µM in each case.
Take `CCOC(=O)C1=C(C)C2C3C(=O)NC(=O)C3C1(C)C1C(=O)NC(=O)C21` (stereo not given): the TGI in the assay with RXF 393 renal, in the assay on SW-620 colon, in the assay on UACC-62 melanoma, in the assay on SK-OV-3 ovarian, with HOP-92 NSCLC and in the assay on EKVX NSCLC was over 100 µM throughout. The TGI in the assay on SK-MEL-5 melanoma, in the assay on SF-295 CNS, with OVCAR-8 ovarian and in the assay on MOLT-4 leukemia was over 100 µM each time.
